Reference: publication PMC10902181 (Journal of neurochemistry, 2023)
Read-outs that look alike come from different tables or passages of the source.

Experiments:
Assay in all cases: TEVC current recordings from Xenopus oocytes, channel blocker inhibition
Assay type in all cases: cell-based
[1] = molecular target: GluN2B-N616K-containing NMDARs (Homo sapiens, UniProt Q05586+Q13224, N616K); details: for % inhibition: 2B-N616K, 300 μM blocker, −40 mV; for IC50: IC50, 2B-N616K, holding −40 mV
[2] = molecular target: GluN1-G620R/GluN2A (Homo sapiens, UniProt Q05586+Q12879, G620R); details: for % inhibition: 1-G620R/2A, 300 μM blocker, −40 mV; for IC50: IC50, 1-G620R/2A, holding −40 mV
[3] = molecular target: GluN2B-V618G-containing NMDARs (Homo sapiens, UniProt Q05586+Q13224, V618G); details: for % inhibition: 2B-V618G, 300 μM blocker, −40 mV; for IC50: IC50, 2B-V618G, holding −40 mV
[4] = molecular target: GluN1/GluN2B-N615K (Homo sapiens, UniProt Q05586+Q13224, N615K); details: for % inhibition: 300 μM blocker, −40 mV
[5] = molecular target: GluN1/GluN2B-N615I (Homo sapiens, UniProt Q05586+Q13224, N615I); details: for % inhibition: 2B-N615I, 300 μM blocker, −40 mV; for IC50: IC50, 2B-N615I, holding −40 mV
[6] = molecular target: GluN1/GluN2A-L611Q (Homo sapiens, UniProt Q05586+Q12879, L611Q); details: for % inhibition: 2A-L611Q, 300 μM blocker, −40 mV; for IC50: IC50, 2A-L611Q, holding −40 mV
[7] = molecular target: GluN2A-N615K-containing NMDARs (Homo sapiens, UniProt Q05586+Q12879, N615K); details: for % inhibition: 2A-N615K, 300 μM blocker, −40 mV; for IC50: IC50, 2A-N615K, holding −40 mV
[8] = molecular target: GluN2A-N614S-containing NMDARs (Homo sapiens, UniProt Q05586+Q12879, N614S); details: for % inhibition: 2A-N614S, 300 μM blocker, −40 mV; for IC50: IC50, 2A-N614S, holding −40 mV
[9] = molecular target: WT GluN1/GluN2B (Homo sapiens, UniProt Q05586+Q13224); details: for IC50: IC50, WT GluN1/WT 2B, holding −40 mV; for % inhibition: WT GluN1/WT 2B, 300 μM blocker, −40 mV
[10] = molecular target: GluN2B-W607C-containing NMDARs (Homo sapiens, UniProt Q05586+Q13224, W607C); details: for % inhibition: 2B-W607C, 300 μM blocker, −40 mV; for IC50: IC50, 2B-W607C, holding −40 mV
[11] = molecular target: GluN2B-V620M-containing NMDARs (Homo sapiens, UniProt Q05586+Q13224, V620M); details: for % inhibition: 2B-V620M, 300 μM blocker, −40 mV; for IC50: IC50, 2B-V620M, holding −40 mV
[12] = molecular target: GluN2B-G611V-containing NMDARs (Homo sapiens, UniProt Q05586+Q13224, G611V); details: for % inhibition: 2B-G611V, 300 μM blocker, −40 mV; for IC50: IC50, 2B-G611V, holding −40 mV
[13] = molecular target: WT GluN1/GluN2A (Homo sapiens, UniProt Q05586+Q12879); details: for IC50: IC50, WT GluN1/WT 2A, holding −40 mV; for % inhibition: WT GluN1/WT 2A, 300 μM blocker, −40 mV

COc1ccc2c(c1)[C@]13CCCC[C@@H]1[C@H](C2)N(C)CC3 [dextromethorphan]
% inhibition ([1]; w/ 1 mM Mg^2+): 93 ± 1.6% (7)
% inhibition ([1]; w/o Mg^2+): 94 ± 1.7% (10)
enhanced potency compared to the WT receptors ([1]; GluN2B-N616K, presence of 1 mM Mg^2+): 4.9 fold
IC50 ([1]; w/ 1 mM Mg^2+): 4.5 µM
IC50 ([1]; w/o Mg^2+): 3.2 µM
% inhibition ([2]; w/ 1 mM Mg^2+): 96 ± 1.5% (8)^¥
% inhibition ([2]; w/o Mg^2+): 97 ± 1.4% (14)
enhanced potency in comparison to WT NMDARs ([2]; GluN1-G620R, absence of Mg^2+): 2.5 fold
enhanced potency compared to the WT receptors ([2]; GluN1-G620R, presence of 1 mM Mg^2+): 5.7 fold
IC50 ([2]; w/ 1 mM Mg^2+): 4.4 µM
IC50 ([2]; w/o Mg^2+): 4.4 µM
% inhibition ([3]; w/ 1 mM Mg^2+): 83 ± 4.0% (10)
% inhibition ([3]; w/o Mg^2+): 85 ± 1.7% (11)^¥
reduced potency compared to the WT receptors ([3]; GluN2B-V618G, presence of 1 mM Mg^2+): 3.2 fold
IC50 ([3]; w/ 1 mM Mg^2+): 71 µM
IC50 ([3]; w/o Mg^2+): 45 µM
IC50 [4]: > 300 µM
% inhibition ([4]; 2B-N615K, w/ 1 mM Mg^2+): 33 ± 3.7% (18) ^*^¥
% inhibition ([4]; 2B-N615K, w/o Mg^2+): 14 ± 2.7% (8)^¥
IC50 ([4]; 2B-N615K, w/ 1 mM Mg^2+, holding −40 mV): > 300 µM
% inhibition ([5]; w/ 1 mM Mg^2+): 94 ± 1.5% (11)
% inhibition ([5]; w/o Mg^2+): 95 ± 1.4% (14)
IC50 ([5]; w/ 1 mM Mg^2+): 17 µM
IC50 ([5]; w/o Mg^2+): 15 µM
% inhibition ([6]; w/ 1 mM Mg^2+): 89 ± 2.3% (8)
% inhibition ([6]; w/o Mg^2+): 91 ± 1.4% (16)
IC50 ([6]; w/ 1 mM Mg^2+): 36 µM
IC50 ([6]; w/o Mg^2+): 27 µM
% inhibition ([7]; w/ 1 mM Mg^2+): 97 ± 0.9% (12)^¥
% inhibition ([7]; w/o Mg^2+): 98 ± 1.4% (8)
enhanced potency in comparison to WT NMDARs ([7]; GluN2A-N615K, absence of Mg^2+): 2.7 fold
enhanced potency compared to the WT receptors ([7]; GluN2A-N615K, presence of 1 mM Mg^2+): 8.3 fold
IC50 ([7]; w/ 1 mM Mg^2+): 3 µM
IC50 ([7]; w/o Mg^2+): 3.8 µM
% inhibition ([8]; w/ 1 mM Mg^2+): 85 ± 2.7% (11)
% inhibition ([8]; w/o Mg^2+): 85 ± 3.0% (10)^¥
IC50 ([8]; w/ 1 mM Mg^2+): 32 µM
IC50 ([8]; w/o Mg^2+): 22 µM
IC50 ([9]; w/ 1 mM Mg^2+): 22 µM
IC50 ([9]; w/o Mg^2+): 4.8 µM
% inhibition ([9]; w/ 1 mM Mg^2+): 90 ± 1.9% (18)
% inhibition ([9]; w/o Mg^2+): 95 ± 1.2% (15)
% inhibition ([10]; w/ 1 mM Mg^2+): 95 ± 1.4% (12)
% inhibition ([10]; w/o Mg^2+): 90 ± 2.8% (11)
reduced potency in 1 mM Mg^2+ vs absence of Mg^2+ ([10]; GluN2B-W607C): 3 fold
IC50 ([10]; w/ 1 mM Mg^2+): 11 µM
IC50 ([10]; w/o Mg^2+): 3.7 µM
% inhibition ([11]; w/ 1 mM Mg^2+): 87 ± 3.2% (8)
% inhibition ([11]; w/o Mg^2+): 93 ± 3.2% (8)
enhanced potency in comparison to WT NMDARs ([11]; GluN2B-V620M, absence of Mg^2+): 2.7 fold
enhanced potency compared to the WT receptors ([11]; GluN2B-V620M, presence of 1 mM Mg^2+): 6.3 fold
IC50 ([11]; w/ 1 mM Mg^2+): 3.5 µM
IC50 ([11]; w/o Mg^2+): 1.8 µM
% inhibition ([12]; w/ 1 mM Mg^2+): 97 ± 1.0% (10)
% inhibition ([12]; w/o Mg^2+): 94 ± 2.3% (10)
enhanced potency compared to the WT receptors ([12]; GluN2B-G611V, presence of 1 mM Mg^2+): 3.5 fold
IC50 ([12]; w/ 1 mM Mg^2+): 6.2 µM
IC50 ([12]; w/o Mg^2+): 3.6 µM
IC50 ([13]; w/ 1 mM Mg^2+): 25 µM
IC50 ([13]; w/o Mg^2+): 11 µM
% inhibition ([13]; w/ 1 mM Mg^2+): 88 ± 3.3% (10)
% inhibition ([13]; w/o Mg^2+): 95 ± 1.6% (19)
